Reference: ChEMBL document CHEMBL5038591, “Identification of a Novel TAR RNA-Binding Protein 2 Modulator with Potential Therapeutic Activity against Hepatocellular Carcinoma” (J Med Chem, 2021)
Activity calls are given as the source filed them. The rule behind the calls is not given here.

What was measured:
SK-HEP1 [1] = test: Antiproliferative activity against human SK-HEP1 cells overexpressing TRBP at 20 uM measured by crystal violet dye based colony formation assay; type: functional, cell-based
SK-HEP1 [2] = test: Antiproliferative activity against human SK-HEP1 cells assessed as increase in miR-21-5p level at 20 uM by qRT-PCR analysis; type: functional, cell-based
SK-HEP1 [3] = test: Antiproliferative activity against human SK-HEP1 cells assessed as decrease in miR-30a-5p level at 20 uM by qRT-PCR analysis; type: functional, cell-based
Huh-7 [4] = test: Antiproliferative activity against human Huh-7 cells incubated for 24 hrs by alamar blue assay; conditions: Huh-7, 24 h
HeLa [5] = test: Antiproliferative activity against human HeLa cells incubated for 24 hrs by alamar blue assay
HepG2 [6] = test: Inhibition of colony formation in human HepG2 cells at 30 uM incubated for 14 days by crystal violet staining based assay; type: functional, cell-based; conditions: time 14.0 day
Huh-7 [7] = test: Inhibition of colony formation in human Huh-7 cells at 30 uM incubated for 14 days by crystal violet staining based assay; type: functional, cell-based; conditions: time 14.0 day
HeLa [8] = test: Inhibition of colony formation in human HeLa cells at 30 uM incubated for 14 days by crystal violet staining based assay; type: functional, cell-based; conditions: time 14.0 day
MDA-MB-231 [9] = test: Inhibition of colony formation in human MDA-MB-231 cells at 30 uM incubated for 14 days by crystal violet staining based assay; type: functional, cell-based; conditions: time 14.0 day
SK-HEP1 [10] = test: Induction of cell cycle arrest in human SK-HEP1 cells assessed as S phase accumulation at 20 uM incubated for 24 hrs by propidium iodide staining based flow cytometry analysis (reference value: 26.72%); type: functional
SK-HEP1 [11] = test: Inhibition of epithelial-mesenchymal transition in human SK-HEP1 cells assessed as change in E-cadherin expression at 10 to 50 uM incubated for 24 hrs by Western blot analysis; type: functional, cell-based; conditions: dose 10-50 µM
SK-HEP1 [12] = test: Inhibition of epithelial-mesenchymal transition in human SK-HEP1 cells assessed as change in beta-catenin expression at 10 to 50 uM incubated for 24 hrs by Western blot analysis; type: functional, cell-based; conditions: dose 10-50 µM
MHCC97 [13] = test: Antitumor activity in human MHCC97 cells xenografted in SCID mouse assessed as suppression of tumor growth at 20 mg/kg, ip administered once every 3 day for 30 days by bioluminescence analysis; type: functional, organism-based; conditions: time 30.0 day
MHCC97 [14] = test: Antitumor activity in human MHCC97 cells xenografted in SCID mouse assessed as suppression of tumor growth at 40 mg/kg, ip administered once every 3 day for 30 days by bioluminescence analysis; type: functional, organism-based; conditions: time 30.0 day
MHCC97 [15] = test: Antimetastatic activity against human MHCC97 cells xenografted in SCID mouse assessed as decrease in liver metastasis at 40 mg/kg, ip administered once every 3 days and measured after 10 days; type: functional, organism-based; conditions: time 10.0 day
[16] = Toxicity in SCID mouse xenografted with human MHCC97 cells assessed as increase in body weight at 40 mg/kg, ip administered once every 3 day for 30 days; type: organism-based; conditions: in vivo, 720 h, time 30 day
SK-HEP1 [17] = test: Effect on human SK-HEP1 cells assessed as increase in miR-497-5p level by qRT-PCR analysis; type: functional, cell-based
SK-HEP1 [18] = test: Effect on human SK-HEP1 cells assessed as increase in miR-146a-5p level by qRT-PCR analysis; type: functional, cell-based
[19] = target: Mitogen-activated protein kinase; ERK1/ERK2 (Homo sapiens) (UniProt P27361+P28482); test: Inhibition of ERK1/2 phosphorylation in human SK-HEP1 cells at 30 uM by Western blot analysis; type: cell-based
[20] = target: MAP kinase p38 (Homo sapiens) (UniProt O15264+Q15759+Q16539+P53778); test: Inhibition of p38 phosphorylation in human SK-HEP1 cells at 30 uM by Western blot analysis; type: cell-based
[21] = target: Signal transducer and activator of transcription 3 (Homo sapiens) (UniProt P40763); test: Inhibition of STAT3 phosphorylation in human SK-HEP1 cells at 30 uM by Western blot analysis; type: cell-based
[22] = target: T1, Inhibitor of nuclear factor kappa-B kinase subunit beta (Homo sapiens) (UniProt O14920); test: Inhibition of IkappaB phosphorylation in human SK-HEP1 cells at 30 uM by Western blot analysis; type: cell-based
T1 sequence (whole entry): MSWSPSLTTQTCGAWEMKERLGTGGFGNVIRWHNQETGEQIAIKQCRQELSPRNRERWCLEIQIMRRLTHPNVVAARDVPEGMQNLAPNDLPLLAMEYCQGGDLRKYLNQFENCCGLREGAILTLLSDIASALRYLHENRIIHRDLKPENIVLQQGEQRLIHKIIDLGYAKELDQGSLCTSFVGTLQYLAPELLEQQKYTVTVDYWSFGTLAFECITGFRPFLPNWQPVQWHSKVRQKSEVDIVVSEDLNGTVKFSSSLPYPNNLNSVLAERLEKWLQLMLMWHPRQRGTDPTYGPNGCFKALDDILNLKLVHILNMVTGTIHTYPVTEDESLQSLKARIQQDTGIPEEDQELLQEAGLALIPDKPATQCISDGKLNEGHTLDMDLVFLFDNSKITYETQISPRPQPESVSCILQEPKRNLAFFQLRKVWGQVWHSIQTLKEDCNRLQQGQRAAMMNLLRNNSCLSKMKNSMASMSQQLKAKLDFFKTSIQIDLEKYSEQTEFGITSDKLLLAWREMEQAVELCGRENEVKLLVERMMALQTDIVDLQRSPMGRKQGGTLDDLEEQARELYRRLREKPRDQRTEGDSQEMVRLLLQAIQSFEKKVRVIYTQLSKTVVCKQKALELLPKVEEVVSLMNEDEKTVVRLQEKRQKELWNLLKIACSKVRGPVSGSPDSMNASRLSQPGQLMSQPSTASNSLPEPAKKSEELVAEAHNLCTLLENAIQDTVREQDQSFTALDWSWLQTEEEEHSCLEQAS

SK-HEP1 [23] = test: Antiproliferative activity against human SK-HEP1 cells knockdown TRBP at 20 uM measured by crystal violet dye based colony formation assay; type: functional, cell-based
SK-HEP1 [24] = test: Inhibition of cell migration in human SK-HEP1 cells overexpressing TRBP at 20 uM measured after 12 hrs using crystal violet staining inverted microscope based transwell assay; type: functional
SK-HEP1 [25] = test: Antiproliferative activity against human SK-HEP1 cells assessed as increase in miR-122-5p level at 20 uM by qRT-PCR analysis; type: functional, cell-based
SK-HEP1 [26] = test: Antiproliferative activity against human SK-HEP1 cells assessed as increase in miR-452-5p level at 20 uM by qRT-PCR analysis; type: functional, cell-based
HepG2 [27] = test: Antiproliferative activity against human HepG2 cells at 25 uM incubated for 24 hrs by alamar blue assay; type: functional, cell-based
Huh-7 [28] = test: Antiproliferative activity against human Huh-7 cells at 25 uM incubated for 24 hrs by alamar blue assay; type: functional, cell-based
HeLa [29] = test: Antiproliferative activity against human HeLa cells at 25 uM incubated for 24 hrs by alamar blue assay; type: functional, cell-based
MDA-MB-231 [30] = test: Antiproliferative activity against human MDA-MB-231 cells at 25 uM incubated for 24 hrs by alamar blue assay; type: functional, cell-based
MHCC97 [31] = test: Antitumor activity against human MHCC97 cells xenografted in SCID mouse assessed as decrease in tumor size at 20 mg/kg, ip administered once every 3 days and measured after 10 days; type: functional, organism-based; conditions: time 10.0 day

Chain of Mitogen-activated protein kinase; ERK1/ERK2 (Homo sapiens) (P27361 whole entry, looked up): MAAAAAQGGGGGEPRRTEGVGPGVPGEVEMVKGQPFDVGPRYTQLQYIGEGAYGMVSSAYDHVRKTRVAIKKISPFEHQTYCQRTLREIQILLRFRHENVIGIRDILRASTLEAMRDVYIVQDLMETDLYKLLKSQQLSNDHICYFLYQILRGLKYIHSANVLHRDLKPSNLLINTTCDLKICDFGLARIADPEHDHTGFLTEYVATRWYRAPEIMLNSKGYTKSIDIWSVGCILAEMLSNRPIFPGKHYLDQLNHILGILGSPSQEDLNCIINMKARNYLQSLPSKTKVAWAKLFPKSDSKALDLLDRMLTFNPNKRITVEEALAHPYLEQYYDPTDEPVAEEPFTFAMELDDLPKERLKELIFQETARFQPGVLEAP
Chain of Mitogen-activated protein kinase; ERK1/ERK2 (Homo sapiens) (P28482 whole entry, looked up): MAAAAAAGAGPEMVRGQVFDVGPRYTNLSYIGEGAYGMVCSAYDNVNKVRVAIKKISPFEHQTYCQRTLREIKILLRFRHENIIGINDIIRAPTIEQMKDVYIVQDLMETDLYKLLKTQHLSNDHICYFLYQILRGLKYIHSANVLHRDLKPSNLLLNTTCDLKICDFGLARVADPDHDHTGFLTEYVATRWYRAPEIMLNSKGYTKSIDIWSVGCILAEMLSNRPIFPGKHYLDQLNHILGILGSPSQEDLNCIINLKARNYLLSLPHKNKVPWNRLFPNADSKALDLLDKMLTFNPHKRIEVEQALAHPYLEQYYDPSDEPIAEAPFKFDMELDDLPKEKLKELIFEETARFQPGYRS
Chain of Signal transducer and activator of transcription 3 (Homo sapiens) (P40763 whole entry): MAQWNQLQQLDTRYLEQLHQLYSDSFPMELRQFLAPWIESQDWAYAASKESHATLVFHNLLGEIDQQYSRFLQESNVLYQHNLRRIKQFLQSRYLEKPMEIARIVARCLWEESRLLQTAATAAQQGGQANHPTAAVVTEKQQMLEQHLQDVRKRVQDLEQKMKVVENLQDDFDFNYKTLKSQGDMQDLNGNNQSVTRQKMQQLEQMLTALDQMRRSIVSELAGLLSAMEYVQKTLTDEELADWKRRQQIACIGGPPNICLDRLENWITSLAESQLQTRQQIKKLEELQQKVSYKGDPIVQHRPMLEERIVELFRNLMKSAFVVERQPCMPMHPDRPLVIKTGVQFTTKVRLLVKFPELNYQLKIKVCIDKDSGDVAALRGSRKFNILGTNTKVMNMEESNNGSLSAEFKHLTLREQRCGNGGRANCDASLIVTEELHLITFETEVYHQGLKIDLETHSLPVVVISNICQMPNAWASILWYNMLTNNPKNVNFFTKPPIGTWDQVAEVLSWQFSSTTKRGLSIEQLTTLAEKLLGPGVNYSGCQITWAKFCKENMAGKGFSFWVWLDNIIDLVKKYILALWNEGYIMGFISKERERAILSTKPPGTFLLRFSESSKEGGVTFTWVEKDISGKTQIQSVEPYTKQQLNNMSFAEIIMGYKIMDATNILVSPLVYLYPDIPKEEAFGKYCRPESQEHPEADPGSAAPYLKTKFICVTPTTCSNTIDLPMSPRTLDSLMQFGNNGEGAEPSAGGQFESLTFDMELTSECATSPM

COc1cc2c(c(O)c1OC)-c1c(cc3c(c1OC)OCO3)C[C@H](C)[C@H](C)C2
Activity (SK-HEP1 [1]): Active | Activity (SK-HEP1 [2]): Active | Activity (SK-HEP1 [3]): inactive | IC50 (Huh-7 [4]): 32.2 µM | IC50 (HeLa [5]): 32.8 µM | inhibition (HepG2 [6]): Active | inhibition (Huh-7 [7]): Active | inhibition (HeLa [8]): Active | inhibition (MDA-MB-231 [9]): Active | Activity (SK-HEP1 [10]): 22.3% | inhibition (SK-HEP1 [11]): inactive | inhibition (SK-HEP1 [12]): inactive | Activity (MHCC97 [13]): Active | Activity (MHCC97 [14]): Active | Activity (MHCC97 [15]): Active | Activity [16]: Toxic | Activity (SK-HEP1 [17]): Dose-Dependent Effect | Activity (SK-HEP1 [18]): Dose-Dependent Effect | inhibition [19]: Active | inhibition [20]: inactive | inhibition [21]: inactive | inhibition [22]: Active | Activity (SK-HEP1 [23]): inactive | inhibition (SK-HEP1 [24]): Active | Activity (SK-HEP1 [25]): Active | Activity (SK-HEP1 [26]): inactive | Activity (HepG2 [27]): Active | Activity (Huh-7 [28]): Active | Activity (HeLa [29]): Active | Activity (MDA-MB-231 [30]): inactive | Activity (MHCC97 [31]): Active
